Consider 19 compounds from patent US10316017B2, “COT modulators and methods of use thereof” (Gilead Sciences, Inc., priority 2015, dated 2019).

The target in test [1] is T1, Human EGFR, cytoplasmic domain [669-1210] (Homo sapiens, UniProt P00533).
T1 construct: purchased Cama Biosciences (so in the source)
In words: High Throughput EGFR Biochemical Assay (KinEASE TR-FRET). As to the method: Example 62: High Throughput EGFR Biochemical Assay
EGFR activity was measured using KinEASE (Cisbio), a time-resolved fluorescence resonance energy transfer (TR-FRET) immunoassay. In this assay, EGFR-catalyzes the phosphorylation of a universal Tyrosine kinase peptide substrate labeled with XL665. Europium conjugated phosphor-tyrosine specific antibody binds the resulting phosphorylated peptide. Formation of phosphorylated peptide is quantified by TR-FRET with Europium as the donor and XL665 the acceptor. The assay was performed in two main steps. The first step is the kinase reaction step and the second step is the detection step with TR-FRET reagents. In brief, test compounds 1:3 serially diluted in DMSO were delivered into Corning white, low volume, non-binding 384 well plates using the Echo 550 acoustic liquid dispenser (Labcyte®). […] After 60 min of incubation at room temperature, 10 μL of Stop and Detect Solution (1:400 Europium Cryptate labeled anti-phosphorylated peptide antibody solution and 125 nM strepavidin-XL665 Tracer in a 50 mM Hepes pH 7.0 detection buffer containing sufficient EDTA) was added.

Test [2] has as its target T2, human Cot catalytic domain (30-397 amino acids) (Homo sapiens, UniProt P41279).
T2 construct: Purified recombinant human Cot catalytic domain (30-397 amino acids) was purchased from Cama Biosciences; purchased Cama Biosciences (so in the source)
In words: High Throughput Cot Biochemical Assay (KinEASE TR-FRET). In outline: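 Phosphorylation of 1 μM XL665-STK3 peptide by 5 nM Cot catalytic domain was measured by time-resolved FRET using a europium […] antibody. ATP was 400 μM; buffer was 10 mM MOPS pH 7.0 with Mg2+ and DTT.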

Test [3] deals with TNFα production in LPS-stimulated human monocytes. In words: Cot Monocyte TNFα Cell Based Assay. The note with it: read-out: EC50 TNF. In outline: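 Percent-of-control values derive from TR-FRET ratios of TNFα in spun-down media, referenced to unstimulated and LPS-stimulated wells. Exposure: 1 h compound preincubation, then 50 pg/ml LPS for 4 h, both at 37 °C, with 0.5% final DMSO.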

Setting [4] is: Cot biochemical HTRF (KinEASE TR-FRET) assay, read-out: IC50 HTRF.
The mark [5] stands for this setting: Homo sapiens, Monocyte, LPS-stimulated human monocytes, TNFα TR-FRET.
The mark [6] stands for this setting: Cot KinEASE TR-FRET, 400 μM ATP, read-out: IC50 HTRF.
Where [7] appears, read: Homo sapiens, Monocyte, TNFα in LPS-stimulated human monocytes.
The mark [8] stands for this setting: Cot KinEASE TR-FRET (HTRF) biochemical assay, 400 μM ATP, read-out: IC50 HTRF.

The structures appear in SMILES notation. Read-outs that look alike come from different tables or passages of the source.

T2 sequence (P41279 30-397): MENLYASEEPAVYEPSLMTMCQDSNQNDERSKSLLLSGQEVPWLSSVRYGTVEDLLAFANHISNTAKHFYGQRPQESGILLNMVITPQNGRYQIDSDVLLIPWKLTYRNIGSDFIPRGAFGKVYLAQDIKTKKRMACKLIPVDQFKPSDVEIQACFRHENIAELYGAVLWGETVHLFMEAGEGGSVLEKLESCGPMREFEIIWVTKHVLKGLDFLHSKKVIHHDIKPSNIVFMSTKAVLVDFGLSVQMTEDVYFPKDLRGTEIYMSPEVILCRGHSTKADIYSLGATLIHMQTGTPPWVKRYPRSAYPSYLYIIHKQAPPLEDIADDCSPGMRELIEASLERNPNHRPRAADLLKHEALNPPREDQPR
T1 sequence (P00533 669-1210): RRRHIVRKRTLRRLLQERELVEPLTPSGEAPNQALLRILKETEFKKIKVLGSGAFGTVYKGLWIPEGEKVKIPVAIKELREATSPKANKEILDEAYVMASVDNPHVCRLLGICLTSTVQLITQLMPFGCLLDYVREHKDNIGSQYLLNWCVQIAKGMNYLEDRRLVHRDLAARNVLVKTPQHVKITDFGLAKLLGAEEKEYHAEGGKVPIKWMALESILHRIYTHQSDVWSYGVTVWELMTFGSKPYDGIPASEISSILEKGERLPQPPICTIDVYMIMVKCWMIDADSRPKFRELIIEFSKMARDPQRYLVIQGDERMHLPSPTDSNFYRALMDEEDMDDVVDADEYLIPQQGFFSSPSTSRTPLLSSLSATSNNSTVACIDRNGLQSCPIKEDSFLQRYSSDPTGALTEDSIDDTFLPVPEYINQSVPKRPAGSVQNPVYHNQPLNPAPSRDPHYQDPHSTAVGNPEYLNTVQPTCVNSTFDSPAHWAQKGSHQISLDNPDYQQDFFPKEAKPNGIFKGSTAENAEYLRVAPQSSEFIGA

On to `CC(Nc1cc(Cl)c2ncc(C#N)c(Nc3ccc(F)c(Cl)c3)c2c1)c1cn(C)nn1` (centres unmarked) [Comparative Example 4, reference compound], for which the IC50 in test [1] is more than 10000 nM; in test [2] (first value of the cell IC50/EC50, 400 μM ATP, 5 nM Cot, read-out: IC50/EC50 [nM]: IC50 (Cot)), more than 10000 nM.
`CC(C)(C)N1CCC(n2cc([C@@H](Nc3cc(Cl)c4ncc(C#N)c(NC5CCCC(O)C5)c4c3)c3ccc(F)cc3)nn2)CC1` (stereo partly drawn) [Example 441, 6-(((S)-(1-(1-(tert-butyl)piperidin-4-yl)-1H-1,2,3-triazol-4-yl)(4-fluorophenyl)methyl)amino)-8-chloro-4-((3-hydroxycyclohexyl)amino) quinoline-3-carbonitrile]: the EC50 in test [3] (TNFα in LPS-stimulated human monocytes) was determined as 5820 nM. In test [2] (setting [4]), the IC50 came to 804 nM.
In the case of `N#Cc1cnc2c(Cl)cc(N[C@@H](c3ccc(F)cc3)c3cn(C4CC4)nn3)cc2c1NCC12CC(C1)C2` [Example 927, (S)-4-((bicyclo[1.1.1]pentan-1-ylmethyl)amino)-8-chloro-6-(((1-cyclopropyl-1H-1,2,3-triazol-4-fluorophenyl)methyl)amino) quinoline-3-carbonitrile], the EC50 in test [3] (setting [5]) turned out to be 576 nM. Further, the IC50 in test [2] (setting [6]) is 34 nM.
For `CC(C)(C)CNc1c(C#N)cnc2c(Cl)cc(N[C@@H](c3cccc(-n4cccn4)c3)c3cn(C4CC4)nn3)cc12` [Example 1033, (S)-6-(((3-(1H-pyrazol-1-yl)phenyl)(1-cyclopropyl-1H-1,2,3-triazol-4-yl)methyl)amino)-8-chloro-4-(neopentylamino)quinoline-3-carbonitrile], the EC50 in test [3] (setting [5]) is 456 nM. In addition, in test [2] (setting [6]), the IC50 was determined as 2 nM.
For `CC(C)(C)N1CCC(n2cc([C@@H](Nc3cc(Cl)c4ncc(C#N)c(Nc5cnc(Cl)c(F)c5)c4c3)c3ccccc3)nn2)CC1` [Example 521, (S)-6-(((1-(1-(tert-butyl)piperidin-4-yl)-1H-1,2,3-triazol-4-yl)(phenyl)methyl)amino)-8-chloro-4-((6-chloro-5-fluoropyridin-3-yl)amino)quinoline-3-carbonitrile], the EC50 in test [3] (setting [7]) was 934 nM. Further, in test [2] (setting [4]), the IC50 was 41 nM.
Take `COc1ccc(Nc2c(C#N)cnc3c(Cl)cc(N[C@@H](c4ccccc4)c4cn(C(C)(C)C)nn4)cc23)cn1` [Example 468, (S)-6-(((1-(tert-butyl)-1H-1,2,3-triazol-4-yl)(phenyl)methyl)amino)-8-chloro-4-((6-methoxypyridin-3-yl)amino)quinoline-3-carbonitrile]: in test [3] (setting [7]), the EC50 was 3150 nM. Moreover, the IC50 in test [2] (setting [4]) came to 173 nM.
On to `N#Cc1cnc2c(Cl)cc(N[C@@H](c3ccc(F)cc3)c3cn(C4CC4)nn3)cc2c1Nc1cnc(F)c(F)c1` [Example 456, (S)-8-chloro-6-(((1-cyclopropyl-1H-1,2,3-triazol-4-yl)(4-fluorophenyl)methyl)amino)-4-((5,6-difluoropyridin-3-yl)amino)quinoline-3-carbonitrile], for which, in test [3] (setting [7]), the EC50 stood at 305 nM. Further, the IC50 in test [2] (setting [4]) worked out at 7 nM.
Turning to `N#Cc1cnc2c(Cl)cc(NC(c3ccc(Cl)cc3)c3cn(C4CNC4)nn3)cc2c1Nc1ccc(F)c(Cl)c1` (centres unmarked) [Example 872, 6-(((1-(azetidin-3-yl)-1H-1,2,3-triazol-4-yl)(4-chlorophenyl)methyl)amino)-8-chloro-4-((3-chloro-4-fluorophenyl)amino)quinoline-3-carbonitrile], in test [3] (setting [7]), the half-maximal effective concentration (EC50) was determined as 1310 nM. For the same compound, the IC50 in test [2] (setting [4]) came to 41 nM.
Regarding `CC(C)(C)CNc1c(C#N)cnc2c(Cl)cc(N[C@@H](c3ccc(F)cc3)c3cn(-c4ccccc4)nn3)cc12` [Example 395, (S)-8-chloro-6-(((4-fluorophenyl)(1-phenyl-1H-1,2,3-triazol-4-yl)methyl)amino)-4-(neopentylamino)quinoline-3-carbonitrile], the EC50 in test [3] (setting [7]) stood at 273 nM. The IC50 in test [2] (setting [8]) was 47 nM.
Regarding `Cc1c(C#N)cccc1[C@H](Nc1cc(Cl)c2ncc(C#N)c(NCC(C)(C)C)c2c1)c1cn(C2(CF)CC2)nn1` [Example 1100, (S)-8-chloro-6-(((3-cyano-2-methylphenyl)(1-(1-(fluoromethyl)cyclopropyl)-1H-1,2,3-triazol-4-yl)methyl)amino)-4-(neopentylamino)quinoline-3-carbonitrile], the EC50 in test [3] (setting [5]) turned out to be 45 nM. Also, in test [2] (setting [6]), the IC50 is 4 nM.
As to `N#Cc1cnc2c(Cl)cc(N[C@H](c3c[nH]nn3)c3cccc(F)c3F)cc2c1Nc1cnc(F)c(F)c1` [Example 448, (S)-8-chloro-6-(((2,3-difluorophenyl)(1H-1,2,3-triazol-4-yl)methyl)amino)-4-((5,6-difluoropyridin-3-yl)amino)quinoline-3-carbonitrile], the EC50 in test [3] (setting [7]) was found to be 1860 nM. In addition, the IC50 in test [2] (setting [4]) came out at 26 nM.
With `CC(C)(C)C(O)c1cccc([C@H](Nc2cc(Cl)c3ncc(C#N)c(Nc4ccc(F)c(Cl)c4)c3c2)c2cn(C3CCN(C(C)(C)C)CC3)nn2)c1` (stereo partly drawn) [Example 672, 6-(((1S)-(1-(1-(tert-butyl)piperidin-4-yl)-1H-1,2,3-triazol-4-yl)(3-(1-hydroxy-2,2-dimethylpropyl)phenyl)methyl)amino)-8-chloro-4-((3-chloro-4-fluorophenyl)amino)quinoline-3-carbonitrile], in test [3] (setting [7]), the concentration giving a half-maximal response (EC50) is 889 nM. In addition, the IC50 in test [2] (setting [4]) worked out at 32 nM.
Consider `CC(C)(C)N1CCC(n2cc([C@@H](Nc3cc(Cl)c4ncc(C#N)c(Nc5ccc(F)c(Cl)c5)c4c3)c3ccc(F)cc3)nn2)CC1` [Example 836, (S)-6-(((1-(1-(tert-butyl)piperidin-4-yl)-1H-1,2,3-triazol-4-yl)(4-fluorophenyl)methyl)amino)-8-chloro-4-((3-chloro-4-fluorophenyl)amino)quinoline-3-carbonitrile], for which, in test [3] (setting [7]), the EC50 was 241 nM. For the same compound, the IC50 in test [2] (setting [4]) was 8 nM.
As for `[2H][C@](Nc1cc(Cl)c2ncc(C#N)c(Nc3cnc(F)c(F)c3)c2c1)(c1ccc(F)cc1)c1cn(C2CC2)nn1` [Example 382, (S)-8-chloro-6-(((1-cyclopropyl-1H-1,2,3-triazol-4-yl)(4-fluorophenyl)methyl-d)amino)-4-((5,6-difluoropyridin-3-yl)amino)quinoline-3-carbonitrile], in test [3] (setting [7]), the concentration giving a half-maximal response (EC50) came to 323 nM. Moreover, in test [2] (setting [8]), the IC50 is 8 nM.
For the compound `[2H][C@](Nc1cc(Br)c2ncc(C#N)c(NCC(C)(C)C)c2c1)(c1ccc(Cl)cc1)c1cn(C2CC2)nn1` [Example 80, (S)-8-bromo-6-(((4-chlorophenyl)(1-cyclopropyl-1H-1,2,3-triazol-4-yl)methyl-d)amino)-4-(neopentylamino) quinoline-3-carbonitrile], the EC50 in test [3] (setting [7]) came to 395 nM. In addition, the IC50 in test [2] (setting [8]) turned out to be 31 nM.
Take `CC1(Cn2cc([C@@H](Nc3cc(Cl)c4ncc(C#N)c(Nc5cnc(F)c(F)c5)c4c3)c3ccc(F)cc3)nn2)CCC1` [Example 413]: the EC50 in test [3] (setting [7]) amounted to 2750 nM. For the same compound, the IC50 in test [2] (setting [4]) amounted to 93 nM.
On to `CC(C)(C)CNc1c(C#N)cnc2c(Br)cc(N[C@@H](c3cccc(C(=O)N4CC(F)C4)c3)c3cn(C4CC4)nn3)cc12` [Example 53, (S)-8-bromo-6-(((1-cyclopropyl-1H-1,2,3-triazol-4-yl)(3-(3-fluoroazetidine-1-carbonyl)phenyl)methyl)amino)-4-(neopentylamino) quinoline-3-carbonitrile], for which, in test [3] (setting [7]), the concentration giving a half-maximal response (EC50) stood at 163 nM. Moreover, the IC50 in test [2] (setting [8]) was found to be 5 nM.
On to `[2H][C@](Nc1cc(Cl)c2ncc(C#N)c(NC3(C4CC4)CC3)c2c1)(c1ccc(F)cc1)c1cn(C2CC2)nn1` [Example 135, (S)-4-([1,1'-bi(cyclopropan)]-1-ylamino)-8-chloro-6-(((1-cyclopropyl-1H-1,2,3-triazol-4-yl)(4-fluorophenyl)methyl-d)amino)quinoline-3-carbonitrile], for which, in test [3] (setting [7]), the EC50 stood at 7500 nM. For the same compound, the IC50 in test [2] (setting [8]) turned out to be 962 nM.
Take `[2H][C@](Nc1cc(Cl)c2ncc(C#N)c(NNC3CCCCC3)c2c1)(c1ccc(F)cc1)c1cn(C2CC2)nn1` [Example 301, (S)-8-chloro-4-(2-cyclohexylhydrazinyl)-6-(((1-cyclopropyl-1H-1,2,3-triazol-4-yl)(4-fluorophenyl)methyl-d)amino)quinoline-3-carbonitrile]: the half-maximal effective concentration (EC50) in test [3] (setting [7]) is 1240 nM. For the same compound, the IC50 in test [2] (setting [8]) is more than 10000 nM.
